We go through 2 molecules from US20090069419A1, “MASKED CARBOXYLATE NEOPENTYL SULFONYL ESTER CYCLIZATION RELEASE PRODRUGS OF ACAMPROSATE, COMPOSITIONS THEREOF, AND METHODS OF USE” (priority 2007, published 2009).

The conditions of series [1]: cited from earlier work.
A further series has as its system cocaine conditioned mice. Conditions: 100 mg/kg for 3 days; cited from earlier work.
The conditions of series [2]: doses of about 1-2 gm per day, cited from earlier work.

For the molecule `CC(=O)NCCCS(=O)(=O)O` [acamprosate, 3-(Acetylamino)propylsulfonic acid], the mean elimination half-life in series [1] (following intravenous infusion (15 min)) was 3.2 ± 0.2 h. Also, in series [1] (humans, oral), the oral bioavailability entry was “about 11%”. Also, in the series with cocaine conditioned mice, the relapse-like behavior result is “attenuated relapse-like behavior”. Moreover, the steady-state plasma concentration in series [2] is 370 to 640 ng/mL. In addition, the “time at which steady-state plasma concentration occurs” value in series [2] (post-dose) was 3 to 8 h.
As for `CC(=O)NCCCS(=O)(=O)OCC(C)(C)CCC(=O)O` [Compound 28, 5-{[3-(Acetylamino)propyl]sulfonyloxy}-4,4-dimethylpentanoic Acid], the melting point (usually the temperature, or range, at which the solid turns liquid) lay within 105.3 to 124.9 °C.
